Data on 20 compounds can be found in patent US20170144998A1, “ELASTASE INHIBITORS” (The California Institute for Biomedical Research, priority 2014, published 2017).

The term IC50 denotes the point on the concentration scale where inhibition reaches its midpoint.

The experiment deals with T1, HNE (human neutrophil elastase) (Homo sapiens, UniProt P08246).
T1 construct: purchased Elastin Products (Owensville, Mo., USA) SE563
T1 sequence (P08246 30-267): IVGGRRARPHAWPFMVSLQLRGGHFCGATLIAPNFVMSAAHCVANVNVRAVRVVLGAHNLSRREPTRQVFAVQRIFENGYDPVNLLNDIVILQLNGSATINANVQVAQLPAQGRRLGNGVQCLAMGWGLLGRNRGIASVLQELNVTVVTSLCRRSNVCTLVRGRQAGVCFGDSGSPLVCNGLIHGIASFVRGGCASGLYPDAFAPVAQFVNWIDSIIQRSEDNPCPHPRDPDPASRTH
Description: Elastase enzyme in-vitro inhibition assay. In kind it is biochemical. To be noted: HNE 20 nM, 15 min incubation at room temperature, substrate MeOSuc-AAPV-AMC 100 μM, PBS buffer. Here is the method:
HNE were purchased from Elastin Products (Owensville, Mo., USA) with catalog number SE563. Fixed concentrations of HNE (20 nM) were incubated with various concentrations of inhibitors in PBS buffer in opaque 96-well plates. After 15 min incubation at room temperature, the corresponding fluorescent substrates MeOSuc-AAPV-AMC (Merck Millipore) were added to each well at final concentration 100 μM. Fluorescence was monitored on a Molecular Devices Spectramax fluorescence plate reader at 460 nm with excitation at 380 nm for 30 min. Residual enzyme activity was calculated using the slope of fluorescence increase in the first 10 min. Percentage of enzyme inhibition was plotted using GraphPad Prism 6 software (GraphPad Prism, La Jolla, Calif., USA). The IC50 value and Ki value was calculated using the Morrison tight-binding equation provided by the software.
Consider `Cc1c(-c2ccnn2-c2ccc(C#N)cc2)cc(C(=O)NCCOCCOCCOCCNC(=O)NCCOCCOCCOCCNC(=O)c2cc(-c3ccnn3-c3ccc(C#N)cc3)c(C)n(-c3cccc(C(F)(F)F)c3)c2=O)c(=O)n1-c1cccc(C(F)(F)F)c1` [Compound 10], for which the half-maximal inhibitory concentration (IC50) is < 150 nM.

With `Cc1c(-c2ccnn2-c2ccc(C#N)cc2)cc(C(=O)NCCOCCOCCOCCOCCNC(=O)NCCOCCOCCOCCOCCNC(=O)c2cc(-c3ccnn3-c3ccc(C#N)cc3)c(C)n(-c3cccc(C(F)(F)F)c3)c2=O)c(=O)n1-c1cccc(C(F)(F)F)c1` [Compound 6], the IC50 is < 150 nM.

Turning to `Cc1c(-c2ccnn2-c2ccc(C#N)cc2)cc(C(=O)NCCOCCOCCOCCNC(=O)CCC(=O)NCCOCCOCCOCCNC(=O)c2cc(-c3ccnn3-c3ccc(C#N)cc3)c(C)n(-c3cccc(C(F)(F)F)c3)c2=O)c(=O)n1-c1cccc(C(F)(F)F)c1` [Compound 12], the half-inhibitory concentration (IC50) is < 150 nM.

Consider `Cc1c(-c2ccnn2-c2ccc(C#N)cc2)cc(C(=O)NCCOCCOCCOCCOCCNC(=O)C(=O)NCCOCCOCCOCCOCCNC(=O)c2cc(-c3ccnn3-c3ccc(C#N)cc3)c(C)n(-c3cccc(C(F)(F)F)c3)c2=O)c(=O)n1-c1cccc(C(F)(F)F)c1` [Compound 7], for which the concentration for half-maximal inhibition (IC50) lay in the range of 150 to 1000 nM.

For the compound `Cc1c(-c2ccnn2-c2ccc(C#N)cc2)cc(C(=O)NCCOCCOCCNC(=O)C(=O)NCCOCCOCCNC(=O)c2cc(-c3ccnn3-c3ccc(C#N)cc3)c(C)n(-c3cccc(C(F)(F)F)c3)c2=O)c(=O)n1-c1cccc(C(F)(F)F)c1` [Compound 9], the half-inhibitory concentration (IC50) was < 150 nM.

`Cc1c(-c2ccnn2-c2ccc(C#N)cc2)cc(C(=O)NCCOCCOCCNC(=O)NCCOCCOCCNC(=O)c2cc(-c3ccnn3-c3ccc(C#N)cc3)c(C)n(-c3cccc(C(F)(F)F)c3)c2=O)c(=O)n1-c1cccc(C(F)(F)F)c1` [Compound 3]: the 50% inhibitory concentration (IC50) was < 150 nM.

For the compound `Cc1c([S+]([O-])c2ccc(C#N)cc2)cc(C(=O)NCCOCCOCCNC(=O)C(=O)NCCOCCOCCNC(=O)c2cc([S+]([O-])c3ccc(C#N)cc3)c(C)n(-c3cccc(C(F)(F)F)c3)c2=O)c(=O)n1-c1cccc(C(F)(F)F)c1` (centres unmarked) [Compound 19], the IC50 was < 150 nM.

In the case of `Cc1c(-c2ccnn2-c2ccc(C#N)cc2)cc(C(=O)NCCOCCOCCOCCNC(=O)NCCCCNC(=O)NCCOCCOCCOCCNC(=O)c2cc(-c3ccnn3-c3ccc(C#N)cc3)c(C)n(-c3cccc(C(F)(F)F)c3)c2=O)c(=O)n1-c1cccc(C(F)(F)F)c1` [Compound 11], the IC50 lay in the range of 150 to 1000 nM.

For `Cc1c([S+]([O-])c2ccc(C#N)cc2)cc(C(=O)NCCOCCOCCOCCOCCNC(=O)NCCCCNC(=O)NCCOCCOCCOCCOCCNC(=O)c2cc([S+]([O-])c3ccc(C#N)cc3)c(C)n(-c3cccc(C(F)(F)F)c3)c2=O)c(=O)n1-c1cccc(C(F)(F)F)c1` (centres unmarked) [Compound 15], the IC50 was < 150 nM.

As for `Cc1c(-c2ccnn2C)cc(C(=O)NCCOCCOCCNC(=O)NCCCCNC(=O)NCCOCCOCCNC(=O)c2cc(-c3ccnn3C)c(C)n(-c3cccc(C(F)(F)F)c3)c2=O)c(=O)n1-c1cccc(C(F)(F)F)c1` [Compound 2], the IC50 was 150 to 1000 nM.

Regarding `Cc1c(-c2ccnn2-c2ccc(C#N)cc2)cc(C(=O)NCCOCCOCCNC(=O)CCC(=O)NCCOCCOCCNC(=O)c2cc(-c3ccnn3-c3ccc(C#N)cc3)c(C)n(-c3cccc(C(F)(F)F)c3)c2=O)c(=O)n1-c1cccc(C(F)(F)F)c1` [Compound 8], the IC50 was < 150 nM.

Regarding `Cc1c([S+]([O-])c2ccc(C#N)cc2)cc(C(=O)NCCOCCOCCOCCNC(=O)NCCCCNC(=O)NCCOCCOCCOCCNC(=O)c2cc([S+]([O-])c3ccc(C#N)cc3)c(C)n(-c3cccc(C(F)(F)F)c3)c2=O)c(=O)n1-c1cccc(C(F)(F)F)c1` (centres unmarked) [Compound 17], the half-inhibitory concentration (IC50) was in the range of 150 to 1000 nM.

For the compound `Cc1c(-c2ccnn2-c2ccc(C#N)cc2)cc(C(=O)NCCOCCOCCOCCOCCNC(=O)NCCCCNC(=O)NCCOCCOCCOCCOCCNC(=O)c2cc(-c3ccnn3-c3ccc(C#N)cc3)c(C)n(-c3cccc(C(F)(F)F)c3)c2=O)c(=O)n1-c1cccc(C(F)(F)F)c1` [Compound 4], the IC50 is < 150 nM.

As to `Cc1c([S+]([O-])c2ccc(C#N)cc2)cc(C(=O)NCCOCCOCCOCCNC(=O)CCC(=O)NCCOCCOCCOCCNC(=O)c2cc([S+]([O-])c3ccc(C#N)cc3)c(C)n(-c3cccc(C(F)(F)F)c3)c2=O)c(=O)n1-c1cccc(C(F)(F)F)c1` (centres unmarked) [Compound 18], the IC50 was < 150 nM.

Consider `Cc1c([S+]([O-])c2ccc(C#N)cc2)cc(C(=O)NCCOCCOCCOCCOCCNC(=O)CCC(=O)NCCOCCOCCOCCOCCNC(=O)c2cc([S+]([O-])c3ccc(C#N)cc3)c(C)n(-c3cccc(C(F)(F)F)c3)c2=O)c(=O)n1-c1cccc(C(F)(F)F)c1` (centres unmarked) [Compound 16], for which the half-maximal inhibitory concentration (IC50) was < 150 nM.

Regarding `CC(C)C(NC(=O)[C@@H]1CCCN1C(=O)[C@@H](NC(=O)c1ccc(C(=O)NCCOCCOCCNC(=O)NCCCCNC(=O)NCCOCCOCCNC(=O)c2ccc(C(=O)N[C@H](C(=O)N3CCC[C@H]3C(=O)NC(C(=O)C(F)(F)F)C(C)C)C(C)C)cc2)cc1)C(C)C)C(=O)C(F)(F)F` (some centres unmarked) [Compound 1], the IC50 was < 150 nM.

As to `Cc1c(-c2ccnn2-c2ccc(C#N)cc2)cc(C(=O)NCCOCCOCCNC(=O)NCCCCNC(=O)NCCOCCOCCNC(=O)c2cc(-c3ccnn3-c3ccc(C#N)cc3)c(C)n(-c3cccc(C(F)(F)F)c3)c2=O)c(=O)n1-c1cccc(C(F)(F)F)c1` [Compound 14], the half-maximal inhibitory concentration (IC50) is < 150 nM.

Take `Cc1c(-c2ccnn2-c2ccc(C#N)cc2)cc(C(=O)NCCOCCOCCOCCNC(=O)C(=O)NCCOCCOCCOCCNC(=O)c2cc(-c3ccnn3-c3ccc(C#N)cc3)c(C)n(-c3cccc(C(F)(F)F)c3)c2=O)c(=O)n1-c1cccc(C(F)(F)F)c1` [Compound 13]: the IC50 is < 150 nM.

Regarding `Cc1c([S+]([O-])c2ccc(C#N)cc2)cc(C(=O)NCCOCCOCCNC(=O)NCCCCNC(=O)NCCOCCOCCNC(=O)c2cc([S+]([O-])c3ccc(C#N)cc3)c(C)n(-c3cccc(C(F)(F)F)c3)c2=O)c(=O)n1-c1cccc(C(F)(F)F)c1` (centres unmarked) [Compound 20], the IC50 lay within 150 to 1000 nM.

Take `Cc1c(-c2ccnn2-c2ccc(C#N)cc2)cc(C(=O)NCCOCCOCCOCCOCCNC(=O)CCC(=O)NCCOCCOCCOCCOCCNC(=O)c2cc(-c3ccnn3-c3ccc(C#N)cc3)c(C)n(-c3cccc(C(F)(F)F)c3)c2=O)c(=O)n1-c1cccc(C(F)(F)F)c1` [Compound 5]: the half-inhibitory concentration (IC50) is < 150 nM.
